Measurements from PubChem BioAssay AID2060910 (Molecular Pharmacology Branch, DTP, NCI, 2025).

Test system: 242566-281-R-J2-PDC complex spheroid viability
Test: Anticancer human tumor 242566-281-R-J2-PDC patient-derived pancreatic carcinoma cell line growth inhibition [RAS]
Details: for IC50: curve of first compound; for viability, T/C: stronger effect = lower value
From the text: RAS pathway inhibitors in Combinations in Complex Spheroids
A high-throughput screen of multi-cell type tumor spheroids was designed to identify active combinations of RAS pathway inhibitors and targeted small molecules. Complex spheroids include a stromal component modeled by human endothelial cells (HUVEC) and fibroblasts modeled by human mesenchymal stem cells (MSCs). The concentration ranges selected for each drug and investigational agent were based upon clinically achievable concentrations if the clinical Cmax of the agent was known.
Compounds. The drugs and investigational agents: abemaciclib (NSC768073), cobimetinib (NSC768068), divarasib (GDC6063, NSC841802), docetaxel (NSC628503), GDC-1971 (RLY-1971, NSC841576), gemcitabine (NSC613327), inavolisib (NSC800729), ipatasertib (NSC767898), KB-0742 (NSC834161), MRTX-1133 (NSC836407), osimertinib (NSC779217), RMC-4630 (NSC839698), RMC-6236 (NSC851965), RMC-6291 (NSC852671), Ro-3306 (NSC812927), sapanisertib (NSC764658), SN-38 (NSC673596), staurosporine (NSC755774), SY5609 (NSC837396), and tovorafenib (DAY101, NSC766906), were obtained from the National Cancer Institute (NCI) Developmental Therapeutics Program Chemical Repository. The FDA-approved anticancer drug set is available from the NCI Developmental Therapeutics Program. […] The stock solutions were prepared in dimethyl sulfoxide (DMSO, Sigma-Aldrich, St. Louis, MO, cat. D2650) at 800-fold the tested concentration and stored at -70 degrees C prior to their use. All drugs and investigational agents were tested over a range starting from a high concentration at or near the clinical Cmax and decreasing in half-log increments. If the clinical Cmax for an agent had not been determined, the highest concentration tested was 10 microM.
Cell Culture. All cells were maintained in an incubator at 37 degrees C and 5% CO2 with 95% humidity. The PDC lines were cultured according to standard operating procedures established by the NCI PDMR. All PDCs were thawed and cultured in Matrigel-coated flasks prepared with a working solution of 1X Ham's F-12 nutrient mix, without supplementation (Invitrogen, Waltham, MA, cat. 11765054), 100 U/mL penicillin-streptomycin (Invitrogen, cat. 15140122), and 2.5% Matrigel (Corning Inc., Corning, NY, cat. 354248) for the first three passages. The 362531-283-R-J2-PDC and 782815-120-R-J1-PDC lines were cultured in 6C/Colon 1B media, which includes advanced DMEM/F-12 (Thermo Fisher Scientific, cat. 12634028), 10 mM HEPES (Thermo Fisher Scientific, cat. 15630080), 1X GlutaMAX supplement (Thermo Fisher Scientific, cat. 35050061), 0.1 mg/mL primocin (InvivoGen, San Diego, CA, cat. ant-pm-2), 10% defined fetal bovine serum, heat inactivated (HyClone Laboratories Inc., Logan, UT, cat. SH30070.03HI), 50% L-WRN conditioned media (ATCC, cat. CRL-3276), 1.25 mM N-Acetyl-L-cysteine (Sigma-Aldrich, cat. A9165), 10 mM nicotinamide (Sigma-Aldrich, cat. N0636), 1X B-27 supplement (Thermo Fisher Scientific, cat. 17504044), 1X N-2 supplement (Thermo Fisher Scientific, cat. 17502048), 50 ng/mL human EGF (Thermo Fisher Scientific, cat. PHG0311), and 10 microM Y-27632 dihydrochloride (Tocris Bioscience, cat. 1254). The K12877-001-R-J1-PDC line was cultured in 6I media, which includes all 6C/Colon 1B media plus 10 ng/mL human FGF-10 (PeproTech, cat. 100-26), 1 ng/mL human FGF-2 (PeproTech, cat. 100-18B), 1 µM prostaglandin E2 (Tocris Bioscience, cat. 2296), […] hydrocortisone (Sigma-Aldrich, cat. H4001), and […] bovine insulin (Sigma-Aldrich, cat. I6634). The K86415-001-R-J1-PDC line was cultured in 6D media, which includes all 6C/Colon 1B media components minus the L-WRN conditioned media. The 485176-168-R4-J1-PDC was cultured in PANC media, which includes all 6C/Colon 1B media plus 100 ng/mL human FGF-10 (PeproTech, cat. 100-26), 500 nM SB-431542 (Selleckchem, cat. S1067), and 10 nM gastrin (Tocris Bioscience, cat. 3006). […]
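Further: spheroids exposed to compound for 7 days before readout.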
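Wherever viability, T/C is given: 100% = DMSO vehicle control wells.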

Work on `C[C@@H](NC(=O)c1ncnc(N)c1Cl)c1ncc(C(=O)Nc2cc(C(F)(F)F)c(Cl)cn2)s1` + CCn1c(-c2cccnc2C(C)OC)c2c3cc(ccc31)N1CCOC(CC(NC(=O)C(C(C)C)N(C)C(=O)C3(F)CCN(C(=O)C#CC(C)(C)N(C)C)CC3)C(=O)N3CCCC(N3)C(=O)OCC(C)(C)C2)C1 yielded an IC50 (second compound 0.000949 µM) of over 10 µM, an IC50 (second compound 0.003 µM) of over 10 µM and an IC50 (second compound 0.00949 µM) of over 10 µM. It also gave an IC50 (second compound 0.03 µM) of over 10 µM, an IC50 (second compound 0.0949 µM) of over 10 µM and an IC50 (second compound 0.3 µM) of over 10 µM. For the same molecule, the viability, T/C (second compound 0.000949 µM, first compound 0.0316 µM) was 126%, the viability, T/C (second compound 0.000949 µM, first compound 0.1 µM) was 107% and the viability, T/C (second compound 0.000949 µM, first compound 0.316 µM) was 112%. For the same molecule, the viability, T/C (second compound 0.000949 µM, first compound 1 µM) was 103%, the viability, T/C (second compound 0.000949 µM, first compound 3.16 µM) was 107% and the viability, T/C (second compound 0.000949 µM, first compound 10 µM) was 63.8%. The viability, T/C (second compound 0.003 µM, first compound 0.0316 µM) was 106%, the viability, T/C (second compound 0.003 µM, first compound 0.1 µM) was 100% and the viability, T/C (second compound 0.003 µM, first compound 0.316 µM) was 106%. The viability, T/C (second compound 0.003 µM, first compound 1 µM) was 105%, the viability, T/C (second compound 0.003 µM, first compound 3.16 µM) was 97.3% and the viability, T/C (second compound 0.003 µM, first compound 10 µM) was 87.7%. For the same molecule, the viability, T/C (second compound 0.00949 µM, first compound 0.0316 µM) was 113%, the viability, T/C (second compound 0.00949 µM, first compound 0.1 µM) was 104% and the viability, T/C (second compound 0.00949 µM, first compound 0.316 µM) was 95.1%. The viability, T/C (second compound 0.00949 µM, first compound 1 µM) was 115%, the viability, T/C (second compound 0.00949 µM, first compound 3.16 µM) was 91.8% and the viability, T/C (second compound 0.00949 µM, first compound 10 µM) was 83.1%. It also gave a viability, T/C (second compound 0.03 µM, first compound 0.0316 µM) of 105%, a viability, T/C (second compound 0.03 µM, first compound 0.1 µM) of 90.8% and a viability, T/C (second compound 0.03 µM, first compound 0.316 µM) of 109%. The viability, T/C (second compound 0.03 µM, first compound 1 µM) was 90.6%, the viability, T/C (second compound 0.03 µM, first compound 3.16 µM) was 77.3% and the viability, T/C (second compound 0.03 µM, first compound 10 µM) was 101%. The viability, T/C (second compound 0.0949 µM, first compound 0.0316 µM) was 94.9%, the viability, T/C (second compound 0.0949 µM, first compound 0.1 µM) was 105% and the viability, T/C (second compound 0.0949 µM, first compound 0.316 µM) was 90.7%. For the same molecule, the viability, T/C (second compound 0.0949 µM, first compound 1 µM) was 105%, the viability, T/C (second compound 0.0949 µM, first compound 3.16 µM) was 69.8% and the viability, T/C (second compound 0.0949 µM, first compound 10 µM) was 98.1%. It also gave a viability, T/C (second compound 0.3 µM, first compound 0.0316 µM) of 90.8%, a viability, T/C (second compound 0.3 µM, first compound 0.1 µM) of 84.5% and a viability, T/C (second compound 0.3 µM, first compound 0.316 µM) of 108%. The viability, T/C (second compound 0.3 µM, first compound 1 µM) was 88.1%, the viability, T/C (second compound 0.3 µM, first compound 3.16 µM) was 85.5% and the viability, T/C (second compound 0.3 µM, first compound 10 µM) was 86.7%.
